Test results from patent US9682928B2 (NeuroPro Therapeutics, Inc., priority 2009, dated 2017).
Entries after “also recorded” stand apart in the source; their conditions may differ.

Key:
[1] = test system: Rat; test: Cortical spreading depression (rat), IP administration; type: in vivo
[2] = Diuresis in rat (urine volume, sodium and potassium excretion); type: in vivo; settings: for Diuresis as measured by increased urine output and Na+/K+ excretion: rat, through 8 hours post-dose
Experimental: (§1) The animals were fasted overnight prior to dosing and had no access to drinking water prior to any pretreatment. Food and water were withheld through the terminal sample collection or for the first 6 hours of blood sample collection, where applicable. Prior to test article administration all animals were pretreated with a single IP dose of PBx. At approximately 5 to 6 minutes prior to dosing all animals received a single oral (PO) gavage dose of 0.9% Sodium Chloride for Injection, USP, at a dose volume of 15 mL/kg. The vehicle, DMSO, and the test articles, NTP-2024 and NTP-2006, were administered via a single IP dose at a dose volume of 1 mL/kg. Cumulative urine volume, sodium excretion, and potassium excretion graphs are illustrated in FIGS. 27, 28, and 29.
as §1, with “Animals” for “The animals”, “PBX.” for “PBx.”, “mL/g.” for “mL/kg.”, “compounds (e.g., NTP-2014)” for “articles, NTP-2024 and NTP-2006,”, “mL/kg.” for “mL/kg. Cumulative urine volume, sodium excretion, and potassium excretion graphs are illustrated in FIGS. 27, 28, and 29.”
as §1, with “Animals” for “The animals”, “0.15” for “15”, “FIG. 27 illustrates cumulative” for “Cumulative”, “volume.” for “volume, sodium excretion, and potassium excretion graphs are illustrated in FIGS. 27, 28, and 29.”
as §1, with “PBX.” for “PBx.”, “FIG. 28 illustrates cumulative” for “Cumulative urine volume,”, “excretion.” for “excretion, and potassium excretion graphs are illustrated in FIGS. 27, 28, and 29.”
as §1, with “PBX.” for “PBx.”, “FIG. 29 illustrates cumulative” for “Cumulative urine volume, sodium excretion, and”, “excretion.” for “excretion graphs are illustrated in FIGS. 27, 28, and 29.”

[3] = test system: adult mice (C57/B16); test: Mesial temporal lobe epilepsy model (mice), hippocampal discharges; type: in vivo, mouse; settings: for Cumulative duration of hippocampal discharges / Number of hippocampal discharges: 50 mg/kg for NTP-2014 and NTP-2026, 150 mg/kg for NTP-2024, NTP-2006, NTP-1007, NTP-1003; for Suppression of discharges through 80 minutes post-dose: 25 and 50 mg/kg (NTP-2014), 50 mg/kg (NTP-2026); for Significant decrease in cumulative duration of and total number of hippocampal discharges: dose-response study, mice
Experimental: Antiepileptic protocol: Up to eight adult mice (C57/B16) are injected with kainate (1 nmol in 50 nl) and are implanted with a bipolar electrode in the dorsal hippocampus using stereotaxic techniques under general anesthesia. […] Drug conditions are counter-balanced, the animals being used as their own controls. Digital EEG recordings are performed in freely moving animals for 20 min pre-injection and 80 min post-injection. The effects of the injected compound are compared versus vehicle injections and reference period (pre-dose). Upon completion of the experiment, standard histological analysis are performed to verify electrode location, cell losses in CA1, CA3 and hilus, as well as dentate gyrus dispersion. Only animals with all characteristics of MTLE are used in data analysis. […] The results below are normalized to the pre-dose condition for each of the treatment group including DMSO and saline vehicle controls. Doses of test article compounds were 50 mg/kg for NTP-2014 and NTP-2026 and 150 mg/kg for NTP-2024, NTP-2006, NTP-1007, and NTP-1003. Therefore the bumetanide, furosemide, piretanide, azosemide, and torsemide esters and amide analogs described herein may be used in therapeutic methods to treat seizures.

Row | SMILES | Decrease in CSD events ([1]; 10 and 30 mg/kg, p~0.05) | Excretion of urine, sodium and potassium (FIG. 33) ([2]; bumetanide PO 30 mg/kg + PBx) | Diuresis in rat ([2]; pre-treatment with inhibitor) | Change in CSD events ([1]; 10 mg/kg IP, p < 0.05) [%] | Change in CSD events ([1]; 50 mg/kg IP, p < 0.05) [%] | Change in CSD events ([1]; 75 mg/kg IP, p < 0.05) [%] | Cumulative duration of hippocampal discharges [3] | Number of hippocampal discharges [3] | Suppression of discharges through 80 minutes post-dose [3] | Significant decrease in cumulative duration of and total number of hippocampal discharges [3] | Urine output, sodium excretion and potassium excretion (FIG. 33) ([2]; NTP-2014 at 10, 50 or 100 mg/kg, PBx pretreated) | Diuresis as measured by increased urine output and Na+/K+ excretion [2] | Decrease in CSD events ([1]; 300 mg/kg, co-administered general metabolic inhibitor (NS)) | Decrease in CSD events ([1]; 10-75 mg/kg, p < 0.05)
1 | CCCCNc1cc(C(=O)O)cc(S(N)(=O)=O)c1Oc1ccccc1 [Bumetanide, reference compound] | CSD events (~30%) at 10 and 30 | substantial excretion | diuresis evident | – | – | – | – | – | – | – | – | – | – | –
2 | CCCCN(CCCC)c1cc(C(=O)O)cc(S(N)(=O)=O)c1Oc1ccccc1 [NTP-2014, 3-Aminosulfonyl-5-N,N-dibutylamino-4-phenoxybenzoic acid] | – | – | – | −38 | −37 | −47 | decreased | decreased | 25 and 50 mg/kg, near complete | Dose-response relationship | does not differ appreciably from the vehicle control; also recorded: does not increase; also recorded: did not increase | No diuresis as measured by increased urine output and Na+/K+ | – | –
3 | CCCCNc1cc(C(=O)NN2CCOCC2)cc(S(N)(=O)=O)c1Oc1ccccc1 [NTP-2024, N-Morpholinyl 3-Aminosulfonyl-5-N-butylamino-4-phenoxybenzamide] | – | – | – | – | – | – | decreased | decreased | – | Dose-response relationship | – | – | 32% decrease in CSD events at | –
4 | CCCCNc1cc(C(=O)N(C)CCCN(C)C)cc(S(N)(=O)=O)c1Oc1ccccc1 [NTP-2026, N-(3-(Dimethylamino)propyl)-N-methyl 3-Aminosulfonyl-5-N-butylamino-4-phenoxybenzamide] | – | – | – | – | – | – | decreased | decreased | 50 mg/kg, near complete suppression of | Dose-response relationship | – | No diuresis as measured by increased urine output and Na+/K+ | – | CSD events (~30-40%) at 10-75
